Patent EP0728012B1, “NOVEL GnRH ANALOGUES WITH ANTITUMOUR EFFECTS AND PHARMACEUTICAL COMPOSITIONS THEREOF” (Lovas, Sandor, priority 1994, dated 1996)
Where two headings read alike, the source gives them in different places. Non-standard residues stand in square brackets, D forms with d. Residues, ends and D or L forms follow the SMILES beside them. pGlu = O=C1CC[C@@H](C(=O)O)N1

Columns and labels:
MCF-7 [1] = test: Inhibition of colony formation by GnRH analogues (dose-survival, Example 48); assay type: cell-based, human; conditions: treated once
Protocol: (§1) The examination gives accurate information about the cell-damaging effect of the substance tested as a function of varying doses. The treatment was carried out once; the colonies formed from the surviving cells were counted after 8 - 12 days. […] A part of the arrested cells again entered the cycle, another part of them might be destroyed (apoptosis). […] In the case of a dose-response investigation, colonies containing less than 15 cells were not counted. 300 cells were put into each Petri dishes of 3.5 cm in diameter. The treatment was once carried out 24 hours after setting, then the colonies formed were counted after 8 - 12 days. The cells were treated once after 24 hours with 1-50 µM of various GnRH analogues of Examples above or with 1 - 50 µM of GnRH-III, respectively. The percentages of inhibition obtained on MCF-7, MDA-MB-231, PC3 and Ishikawa cells, respectively, together with the dose of the active agent used are shown in Table VIII.

MDA-MB-231 [2] = test: as above; assay type: cell-based, human
Protocol: as §1

human tumour cell lines = test: Inhibition of colony formation (Example 48), comparison with the control D-Trp^6-hGnRH; assay type: cell-based; conditions: data of Table VIII
Protocol: as §1
In these studies the D-Trp^6-hGnRH analogue (Sigma Co.) commonly used in the tumour therapy was employed as control.

PC3 [3] = test: Inhibition of colony formation by GnRH analogues (dose-survival, Example 48); assay type: cell-based, human; conditions: for % Inhibition of the colony formation: 50 µM
Protocol: as §1

Ishikawa = test: as above; assay type: cell-based, human; conditions: 50 µM
Protocol: as §1

[4] = system: Ishikawa human endometrium carcinoma cell line; test: Inhibition of colony formation (dose-survival relation, Example 18); assay type: cell-based; conditions: for inhibition of colony formation: concentration not given; for % Inhibition of colony formation: 50 µM
Protocol: (§2) In the case of cytostatics the cell-damaging effect is not cell-specific. […] One part of the arrested cells again go into the cycle, the other part may perish (apoptosis). […] The investigations were carried out on MCF-7 and MDA-MB-231 human mammary carcinoma cell lines, PC3 human prostate 15 carcinoma cell line and Ishikawa human endometrium carcinoma cell line. Three hundred cells were set into Petri dishes of 3.5 cm in diameter each. The treatment was carried out once, 24 hours following the explantation, then the colonies formed were counted after 9 to 12 days.

[5] = system: MCF-7 human mammary carcinoma cell line; test: as above; assay type: cell-based; conditions: for inhibition of colony formation: concentration not given; for % Inhibition of colony formation: 50 µM (active substance), treated once
Protocol: as §2

MCF-7 [6] = conditions: for % Inhibition of cell division (proliferation): MCF-7, 30 µM active substance, conjugate, treated once, cell count on 7th day
Protocol: (§3) The procedure of treatment was as follows. After trypsinization the cells, 400,000 cells of MCF-7, MDA-MB-231 human mammary carcinoma, PC3 human prostate carcinoma or Ishikawa human endometrium tumour each were passed into Petri dishes of 10 cm in diameter. Starting from the day following transfer, the cells were treated with the substances to be tested in solution prepared with the nutrient medium during the exponential growth phase. […]

MDA-MB-231 [7] = conditions: for % Inhibition of cell division (proliferation): MDA-MB-231, 30 µM active substance, conjugate, treated once
Protocol: as §3

PC3 [8] = test: In vitro inhibition of cell proliferation (Example 19); assay type: cell-based, human; conditions: 30 µM, peptide alone, two treatments on days 2 and 4
Protocol: The procedure of treatment was as follows. After trypsinization the cells, 400,000 cells of MCF-7, MDA-MB-231 human mammary carcinoma, PC3 human prostate carcinoma or Ishikawa human endometrium tumour each were passed into Petri dishes of 10 cm in diameter. Starting from the day following transfer, the cells were treated with the substances to be tested in solution prepared with the nutrient medium during the exponential growth phase. The cultures were treated with 1 to 50 µM (calculated for the total volume of the culture) or MI-1544 GnRH antagonist, MI-1892 chicken GnRH antagonist or SJ-1004 GnRH antagonist analogues as well as synthetic lamprey GnRH-III hormone every two days and the cell count was determined on the 7th day.

[9] = system: PC3 human prostate carcinoma cell line; test: Inhibition of colony formation (dose-survival relation, Example 18); assay type: cell-based; conditions: for inhibition of colony formation: concentration not given
Protocol: as §2

[10] = system: MDA-MB-231 human mammary carcinoma cell line; test: as above; assay type: cell-based; conditions: for % Inhibition of colony formation: 50 µM
Protocol: as §2

NCCCC[C@H](NC(=O)[C@H](CO)NC(=O)[C@H](Cc1c[nH]c2ccccc12)NC(=O)[C@H](Cc1c[nH]cn1)NC(=O)[C@@H]1CCC(=O)N1)C(=O)N[C@@H](CC(=O)O)C(=O)N[C@@H](Cc1c[nH]c2ccccc12)C(=O)N[C@@H](CCCCN)C(=O)N1CCC[C@H]1C(=O)NCC(N)=O [2. Lys^5-GnRH-III, Lys^5-GnRH-III]
% Inhibition of the colony formation (MCF-7 [1]; 50 µM): 0% | % Inhibition of the colony formation (MDA-MB-231 [2]; 50 µM): 0%

NCCCC[C@H](NC(=O)[C@H](Cc1c[nH]c2ccccc12)NC(=O)[C@H](CCC(=O)O)NC(=O)[C@H](Cc1c[nH]cn1)NC(=O)[C@H](CO)NC(=O)[C@H](Cc1c[nH]c2ccccc12)NC(=O)[C@H](Cc1c[nH]cn1)NC(=O)[C@@H]1CCC(=O)N1)C(=O)N1CCC[C@H]1C(=O)NCC(N)=O [8. Glu^6-GnRH-III, Glu^6-GnRH-III]
inhibitory effect compared with the control D-Trp^6-hGnRH (human tumour cell lines): exceeded the inhibitory effect of control | % Inhibition of the colony formation (PC3 [3]): 31% | % Inhibition of the colony formation (Ishikawa): 2% | % Inhibition of the colony formation (MCF-7 [1]; 50 µM): 44% | % Inhibition of the colony formation (MDA-MB-231 [2]; 50 µM): 25%

NCCCC[C@H](NC(=O)[C@H](Cc1cn(C=O)c2ccccc12)NC(=O)[C@H](CC(=O)O)NC(=O)[C@H](Cc1c[nH]cn1)NC(=O)[C@H](CO)NC(=O)[C@H](Cc1cn(C=O)c2ccccc12)NC(=O)[C@H](Cc1c[nH]cn1)NC(=O)[C@@H]1CCC(=O)N1)C(=O)N1CCC[C@H]1C(=O)NCC(N)=O [14. [Trp(For-Ind)]^3,7- -GnRH-III, [Trp(For-Ind)]^3,7-GnRH-III]
inhibitory effect compared with the control D-Trp^6-hGnRH (human tumour cell lines): approximated the activity of the control | % Inhibition of the colony formation (Ishikawa): 24% | % Inhibition of the colony formation (MCF-7 [1]; 50 µM): 31%

NCCCC[C@H](NC(=O)[C@H](Cc1ccccc1)NC(=O)[C@H](CC(=O)O)NC(=O)[C@H](Cc1c[nH]cn1)NC(=O)[C@H](CO)NC(=O)[C@H](Cc1c[nH]c2ccccc12)NC(=O)[C@H](Cc1c[nH]cn1)NC(=O)[C@@H]1CCC(=O)N1)C(=O)N1CCC[C@H]1C(=O)NCC(N)=O [15. Phe^7 -GnRH-III, Phe^7-GnRH-III]
inhibitory effect compared with the control D-Trp^6-hGnRH (human tumour cell lines): a weak if any effect | % Inhibition of the colony formation (MCF-7 [1]; 50 µM): 26% | % Inhibition of the colony formation (MDA-MB-231 [2]; 50 µM): 21%

CC(C)C[C@H](NC(=O)[C@@H](Cc1c[nH]c2ccccc12)NC(=O)[C@H](CCCCN)NC(=O)[C@H](CO)NC(=O)[C@H](Cc1c[nH]c2ccccc12)NC(=O)[C@H](Cc1c[nH]cn1)NC(=O)[C@@H]1CCC(=O)N1)C(=O)N[C@@H](CCCNC(=N)N)C(=O)N1CCC[C@H]1C(=O)NCC(N)=O [17. Lys^5-DTrp^6-hGnRH, Lys^5,D-Trp^6-hGnRH] ([pGlu]HWSK[dW]LRPG-NH2)
inhibitory effect compared with the control D-Trp^6-hGnRH (human tumour cell lines): a twice stronger inhibition | % Inhibition of the colony formation (PC3 [3]): 18% | inhibition of colony formation (PC3 [3]; within the dose range used (1-50 µM)): weakly inhibited | % Inhibition of the colony formation (Ishikawa): 17% | % Inhibition of the colony formation (Ishikawa; listed as compound 17, 50 µM): 15% | % Inhibition of the colony formation (MCF-7 [1]; 10 µM): 39% | % Inhibition of the colony formation (MCF-7 [1]; 50 µM): 65% | % Inhibition of the colony formation (MDA-MB-231 [2]; 10 µM): 30% | % Inhibition of the colony formation (MDA-MB-231 [2]; 50 µM): 63%

CC(C)C[C@H](NC(=O)[C@@H](Cc1c[nH]c2ccccc12)NC(=O)[C@H](Cc1ccc(O)cc1)NC(=O)[C@H](CO)NC(=O)[C@H](Cc1c[nH]c2ccccc12)NC(=O)[C@H](Cc1c[nH]cn1)NC(=O)[C@@H](N)CCC(=O)O)C(=O)N[C@@H](CCCNC(=N)N)C(=O)N1CCC[C@H]1C(=O)NCC(N)=O [19. H-Glu^1,D-Trp^6 - hGnRH, H-Glu^1,D-Trp^6-hGnRH]
inhibitory effect compared with the control D-Trp^6-hGnRH (human tumour cell lines): approximated the activity of the control | % Inhibition of the colony formation (MCF-7 [1]; 10 µM): 16.8% | % Inhibition of the colony formation (MCF-7 [1]; 50 µM): 32.7%

NCCCC[C@H](NC(=O)[C@H](Cc1c[nH]c2ccccc12)NC(=O)[C@H](CC(=O)O)NC(=O)[C@H](CCCCNC(=O)OCC1c2ccccc2-c2ccccc21)NC(=O)[C@H](CO)NC(=O)[C@H](Cc1c[nH]c2ccccc12)NC(=O)[C@H](Cc1c[nH]cn1)NC(=O)[C@@H]1CCC(=O)N1)C(=O)N1CCC[C@H]1C(=O)NCC(N)=O [Example 26, [Lys(εFmoc)]^5-GnRH-III]
inhibitory effect compared with the control D-Trp^6-hGnRH (human tumour cell lines): a weak if any effect

NCCCC[C@H](NC(=O)[C@H](CO)NC(=O)[C@H](Cc1c[nH]c2ccccc12)NC(=O)[C@H](Cc1c[nH]cn1)NC(=O)[C@@H]1CCC(=O)N1)C(=O)N[C@H]1CC(=O)NCCCC[C@@H](C(=O)N2CCC[C@H]2C(=O)NCC(N)=O)NC(=O)[C@H](Cc2c[nH]c3ccccc23)NC1=O [Lys^5, cyclo[Asp^6-Lys^8]-GnRH-III]
inhibitory effect compared with the control D-Trp^6-hGnRH (human tumour cell lines): exceeded the inhibitory effect of control | inhibition of colony formation [4]: 13% | inhibition of colony formation [5]: 44% | % Inhibition of the colony formation (Ishikawa): 13% | % Inhibition of the colony formation (MCF-7 [1]; 50 µM): 44%

CC(C)C[C@H](NC(=O)[C@@H](CCCCN)NC(=O)[C@H](Cc1ccc(O)cc1)NC(=O)[C@H](CO)NC(=O)[C@@H](Cc1c[nH]c2ccccc12)NC(=O)[C@@H](Cc1ccccc1)NC(=O)[C@@H]1CCC(=O)N1)C(=O)N[C@@H](CCCNC(=N)N)C(=O)N1CCC[C@H]1C(=O)NCC(N)=O [SJ-1004, D-Phe^2,D-Trp^3,D-Lys^6-hGnRH, reference compound] ([pGlu][dF][dW]SY[dK]LRPG-NH2)
inhibition of proliferation (decrease in cell count) (MCF-7 [6]; MCF-7 (10% FCS), 30 µM, peptide alone, treated every two days (two treatments, days 2 and 4)): 17% | inhibition of proliferation (decrease in cell count) (MDA-MB-231 [7]; MDA-MB-231 (10% FCS), 30 µM, peptide alone, treated every two days (two treatments)): 23% | inhibition of proliferation (PC3 [8]): 10% | % Inhibition of colony formation [4]: 5% | % Inhibition of colony formation ([9]; 50 µM): 0% | % Inhibition of colony formation [10]: 26% | % Inhibition of colony formation [5]: 31%

Ac-D-Trip^1,3,D-Cpa^2,{Lys[n-poly(N-vinylpyrrolidone-co-maleic acid)-Gly-Leu-Gly-]}^5,[a-Asp(DEA)]^6, D-Ala^10-GnRH [P-GLG-1892]
% Inhibition of cell division (proliferation) (MCF-7 [6]; listed as 13. P-GLG-MI-1892): 33% | % Inhibition of cell division (proliferation) (MDA-MB-231 [7]; listed as 13. P-GLG-MI-1892): 35%

Ac-D-Trp^1,3,D-Cpa^2,{Lys[n-poly(N-vinylpyrrolidone-co-maleic acid)-Phe-Leu-Gly-]}^5,a-Asp (DEA)]^6,D-Ala^10-GnRH [P-FLG-1892]
% Inhibition of cell division (proliferation) (MCF-7 [6]; listed as 12. P-FLG-MI-1892): 33% | % Inhibition of cell division (proliferation) (MDA-MB-231 [7]; listed as 12. P-FLG-MI-1892): 35%

pGlu-His-Trp-Ser-Tyr-D-Trp-Leu-Arg-Pro-Gly-NH2 [D-Trp^6-hGnRH (Decapeptyl), reference compound]
% Inhibition of the colony formation (MCF-7 [1]; 10 µM): 17.1% | % Inhibition of the colony formation (MCF-7 [1]; 50 µM): 36.7% | % Inhibition of the colony formation (MDA-MB-231 [2]; 10 µM): 15.7% | % Inhibition of the colony formation (MDA-MB-231 [2]; 50 µM): 38.7%

{Lys[n-poly(N-vinylpyrrolidone-co-maleic acid)-Gly-Phe-Leu-Gly-]}^4,-GnRH-III [P-GFLG-Lys^4-GnRH-III]
% Inhibition of colony formation [4]: 25% | inhibition of colony formation [4]: 25% | % Inhibition of colony formation ([9]; 30 µM): 94% | inhibition of colony formation [9]: 94% | % Inhibition of colony formation [10]: 75% | inhibition of colony formation ([10]; concentration not given): 75% | % Inhibition of colony formation [5]: 68% | inhibition of colony formation [5]: 68%

{Lys[n-poly(N-vinylpyrrolidone-co-maleic acid)-Gly-Phe-Leu-Gly-]}^5,cyclo(Asp^6-Lys^8)-GnRH-III [P-GFLG-Lys^5-cyclo(Asp^6,Lys^8)-GnRH-III]
% Inhibition of colony formation [4]: 19% | inhibition of colony formation [4]: 19% | % Inhibition of colony formation ([9]; 50 µM): 100% | inhibition of colony formation [9]: 100% | % Inhibition of colony formation [10]: 82% | % Inhibition of colony formation [5]: 78%
